Data reported in EP1091938B1, “ANTIHISTAMINIC PIPERIDINE DERIVATIVES AND INTERMEDIATES FOR THE PREPARATION THEREOF” (Aventisub II Inc., priority 1998, dated 2000).

Assays:
[1] = extent of first pass metabolism to two primary metabolites; cited from earlier work
[2] = molecular target: T1, H1-histaminergic receptors (Rattus norvegicus, UniProt P31390); test: [3H] pyrilamine binding in rat cortex membranes; conditions: displacement of 3H pyrilamine (2 nM final), rat cortex homogenate, 30 minute incubation at room temperature; Ki from IC50 with the Cheng-Prusoff equation
T1 construct: The brains of young male rats are removed; The cortici are dissected; from tissue; host or cells: rat brain cortex membrane homogenate
Procedure: Antihistaminic potential is measured by affinity of a test compound for [^3H] pyrilamine binding sites associated with the antagonist component of H1-histaminergic receptors in animal brain membranes. Affinity for this receptor is indicative of the potential of a test compound to interact with central and peripheral H1-histaminergic receptors.
The following method is used to determine the affinity of test compounds for [^3H] pyrilamine binding sites in rat cortex.
The brains of young male rats are removed. The cortici are dissected and stored at -20°C or immediately used. The tissue is homogenized in 10 ml of ice-cold […] K/NaPO4 buffer (pH 7.4) using a Polytron (setting 6 for 15 seconds). […]
The brains of young male rats are removed. […] The filters are either transferred to scintillation vials and 10 ml Quicksafe A is added for liquid scintillation spectrometry or a thin layer of solid scintillant is melted onto the filters and the filters then counted using a betaplate beta counter. Specific binding of ^3H pyrilamine is measured as the excess over blanks taken in the presence of 2.10-6 M promethazine. Protein content of the membranes is determined by the method of Lowry et al., J. Biol. Chem. 193, 265-275 (1951). Displacement curves are analyzed using the GraphPad (GraphPad Software, Inc.) or similar program to obtain Hill slopes and IC50 values. […]

T1 sequence (P31390 whole entry): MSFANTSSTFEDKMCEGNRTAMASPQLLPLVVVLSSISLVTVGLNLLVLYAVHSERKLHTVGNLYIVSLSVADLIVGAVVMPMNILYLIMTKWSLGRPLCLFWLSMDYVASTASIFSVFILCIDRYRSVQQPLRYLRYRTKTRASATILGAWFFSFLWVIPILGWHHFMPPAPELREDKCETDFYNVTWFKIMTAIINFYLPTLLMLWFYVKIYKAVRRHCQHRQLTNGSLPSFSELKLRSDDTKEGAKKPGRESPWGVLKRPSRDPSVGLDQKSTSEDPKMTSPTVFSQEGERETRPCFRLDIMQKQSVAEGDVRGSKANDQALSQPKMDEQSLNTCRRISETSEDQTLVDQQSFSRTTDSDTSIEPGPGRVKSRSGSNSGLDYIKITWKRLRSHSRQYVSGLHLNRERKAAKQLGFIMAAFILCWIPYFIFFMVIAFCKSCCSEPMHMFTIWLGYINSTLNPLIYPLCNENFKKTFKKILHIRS

Row | Ki [2] [nM] | Compound | first pass metabolism [1] [%]
1 |  | CC(C)(C)c1ccc(C(O)CCCN2CCC(C(O)(c3ccccc3)c3ccccc3)CC2)cc1 (stereo not drawn) [Terfenadine, α-[4-(1,1-dimethylethyl)phenyl]-4-(hydroxydiphenylmethyl)-1-piperidinebutanol] | 99
2 | 360 | CC(CO)(C(=O)O)c1ccc(C(O)CCCN2CCC(C(O)(c3ccccc3)c3ccccc3)CC2)cc1 (stereo not drawn) [4-[1-hydroxy-4-[4-(hydroxydiphenylmethyl)-1-piperidinyl]butyl]-α-(hydroxymethyl)-α-methyl-benzeneacetic acid] | 
